Measurements as given in patent US10377753B2, “Substituted 4-azaindoles and their use as GluN2B receptor modulators” (Janssen Pharmaceutica NV, priority 2015, dated 2019).
pIC50: −log10 of the molar value.

biological target: cloned human NR1/NR2B ion channels (Homo sapiens (Human), UniProt Q05586+Q13224); test: HNR2BC: effects of test articles on cloned human NR1/NR2B ion channels expressed in mammalian cells (FLIPR calcium flux); assay type: cell-based; conditions: cloned human NR1/NR2B, Table 5
Sequence (Q13224 27-1484, other chains not shown): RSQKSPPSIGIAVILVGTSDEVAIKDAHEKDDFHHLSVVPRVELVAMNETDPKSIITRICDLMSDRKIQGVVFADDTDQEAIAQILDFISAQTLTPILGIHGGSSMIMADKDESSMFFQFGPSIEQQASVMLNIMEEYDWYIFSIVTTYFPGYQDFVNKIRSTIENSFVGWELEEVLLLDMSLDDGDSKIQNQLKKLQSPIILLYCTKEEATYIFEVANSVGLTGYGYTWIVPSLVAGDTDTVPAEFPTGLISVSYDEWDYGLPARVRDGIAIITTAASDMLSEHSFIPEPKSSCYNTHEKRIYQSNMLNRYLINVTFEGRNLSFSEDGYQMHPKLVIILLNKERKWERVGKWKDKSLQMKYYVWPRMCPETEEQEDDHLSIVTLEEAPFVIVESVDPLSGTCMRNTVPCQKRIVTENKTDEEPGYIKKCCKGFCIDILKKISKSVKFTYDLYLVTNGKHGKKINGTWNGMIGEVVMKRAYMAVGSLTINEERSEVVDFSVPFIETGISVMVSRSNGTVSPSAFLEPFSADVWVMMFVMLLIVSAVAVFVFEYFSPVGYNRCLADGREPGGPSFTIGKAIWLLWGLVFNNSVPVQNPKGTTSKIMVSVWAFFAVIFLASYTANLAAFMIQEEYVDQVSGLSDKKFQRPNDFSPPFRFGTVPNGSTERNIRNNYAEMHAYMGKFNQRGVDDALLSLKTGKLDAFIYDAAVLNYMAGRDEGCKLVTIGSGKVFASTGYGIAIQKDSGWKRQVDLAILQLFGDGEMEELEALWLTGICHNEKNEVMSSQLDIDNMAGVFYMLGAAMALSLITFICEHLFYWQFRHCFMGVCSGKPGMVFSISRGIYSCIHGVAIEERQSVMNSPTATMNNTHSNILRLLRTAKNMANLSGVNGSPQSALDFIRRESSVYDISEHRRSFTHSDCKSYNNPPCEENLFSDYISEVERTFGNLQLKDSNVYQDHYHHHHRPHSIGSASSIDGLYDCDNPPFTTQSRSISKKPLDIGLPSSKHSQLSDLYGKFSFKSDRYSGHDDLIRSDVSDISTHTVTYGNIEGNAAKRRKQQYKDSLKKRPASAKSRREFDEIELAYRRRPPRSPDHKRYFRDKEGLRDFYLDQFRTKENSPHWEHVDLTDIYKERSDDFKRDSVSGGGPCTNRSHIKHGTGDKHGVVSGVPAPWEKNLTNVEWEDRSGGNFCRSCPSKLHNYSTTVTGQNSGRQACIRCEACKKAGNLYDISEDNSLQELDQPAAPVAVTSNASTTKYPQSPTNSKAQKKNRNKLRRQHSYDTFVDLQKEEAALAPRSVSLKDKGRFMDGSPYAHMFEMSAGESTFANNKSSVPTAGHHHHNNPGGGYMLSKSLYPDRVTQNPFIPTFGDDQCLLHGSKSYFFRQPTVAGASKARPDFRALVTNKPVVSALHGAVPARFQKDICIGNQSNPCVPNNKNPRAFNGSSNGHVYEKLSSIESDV
Procedure, shortened: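 Compounds were added to dye-loaded cells for 5 min with fluorescence monitored for agonism, followed by co-agonists (glutamate ~EC80, glycine 10 μM saturating) for 5 min. Cells stably expressed inducible human NR1/NR2B, and the buffer was pH 7.4. The FLIPR Ca2+ flux signal was normalized against control wells.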

**Q.** `Cc1cc(-c2cnc3c(Br)cn(CC(=O)N4CCC4)c3c2)ccc1F` [Example 68, 1-(Azetidin-1-yl)-2-[3-bromo-6-(4-fluoro-3-methyl-phenyl)pyrrolo[3,2-b]pyridin-1-yl]ethanone] was tested. Which pIC50 did it give?
**A.** 7.40

**Q.** How did the pIC50 turn out when `Cc1cc(-c2cnc3c(F)cn(CC(=O)N4CCC4)c3c2)ccc1F` [Example 69, 1-(Azetidin-1-yl)-2-[3-fluoro-6-(4-fluoro-3-methyl-phenyl)pyrrolo[3,2-b]pyridin-1-yl]ethanone] was run?
**A.** 7.60

**Q.** How did the pIC50 turn out when `Cc1cc(-c2cnc3ccn(CC(=O)O)c3c2)ccc1F` [Example 70, 2-[6-(4-Fluoro-3-methyl-phenyl)pyrrolo[3,2-b]pyridin-1-yl]acetic acid] was run?
**A.** 7.30

**Q.** How did the pIC50 turn out when `O=C(Cn1ccc2ncc(-c3ccccc3F)cc21)N1CCC1` [Example 71, 1-(azetidin-1-yl)-2-[6-(2-fluorophenyl)pyrrolo[3,2-b]pyridin-1-yl]ethanone] was run?
**A.** 5.10

**Q.** How did the pIC50 turn out when `O=C(Cn1ccc2ncc(-c3cccc(F)c3)cc21)N1CCC1` [Example 72, 1-(Azetidin-1-yl)-2-[6-(3-fluorophenyl)pyrrolo[3,2-b]pyridin-1-yl]ethanone] was run?
**A.** 6.60

**Q.** How did the pIC50 turn out when `Cc1ccc(-c2cnc3ccn(CC(=O)N4CCC4)c3c2)cc1` [Example 73, 1-(Azetidin-1-yl)-2-[6-(p-tolyl)pyrrolo[3,2-b]pyridin-1-yl]ethanone] was run?
**A.** 7.40

**Q.** With `CCc1cccc(-c2cnc3ccn(CC(=O)N4CCC4)c3c2)c1` [Example 74, 1-(Azetidin-1-yl)-2-[6-(3-ethylphenyl)pyrrolo[3,2-b]pyridin-1-yl]ethanone] as the molecule, how does the pIC50 read?
**A.** 6.70

**Q.** How did the pIC50 turn out when `O=C(Cn1ccc2ncc(-c3ccccc3F)cc21)NC1CC1` [Example 75, N-Cyclopropyl-2-[6-(2-fluorophenyl)pyrrolo[3,2-b]pyridin-1-yl]acetamide] was run?
**A.** 7.30

**Q.** How did the pIC50 turn out when `O=C(Cn1ccc2ncc(-c3cccc(F)c3)cc21)NC1CC1` [Example 76, N-Cyclopropyl-2-[6-(3-fluorophenyl)pyrrolo[3,2-b]pyridin-1-yl]acetamide] was run?
**A.** 6.00

**Q.** `Cc1ccc(-c2cnc3ccn(CC(=O)NC4CC4)c3c2)cc1` [Example 77, N-Cyclopropyl-2-[6-(p-tolyl)pyrrolo[3,2-b]pyridin-1-yl]acetamide] was tested. Which pIC50 did it give?
**A.** 6.60

**Q.** `O=C(Cn1ccc2ncc(-c3ccccc3)cc21)N1CCCC1` [Example 78, 2-(6-Phenylpyrrolo[3,2-b]pyridin-1-yl)-1-pyrrolidin-1-yl-ethanone] was tested. Which pIC50 did it give?
**A.** 5.80

**Q.** With `O=C(Cn1ccc2ncc(-c3ccccc3F)cc21)N1CCCC1` [Example 79, 2-[6-(2-Fluorophenyl)pyrrolo[3,2-b]pyridin-1-yl]-1-pyrrolidin-1-yl-ethanone] as the molecule, how does the pIC50 read?
**A.** 7.10

**Q.** With `O=C(Cn1ccc2ncc(-c3ccc(F)cc3)cc21)N1CCCC1` [Example 80, 2-[6-(4-Fluorophenyl)pyrrolo[3,2-b]pyridin-1-yl]-1-pyrrolidin-1-yl-ethanone] as the molecule, how does the pIC50 read?
**A.** 6.50

**Q.** How did the pIC50 turn out when `Cc1cccc(-c2cnc3ccn(CC(=O)N4CCCC4)c3c2)c1` [Example 81, 2-[6-(m-Tolyl)pyrrolo[3,2-b]pyridin-1-yl]-1-pyrrolidin-1-yl-ethanone] was run?
**A.** 6.50

**Q.** With `Cc1ccc(-c2cnc3ccn(CC(=O)N4CCCC4)c3c2)cc1` [Example 82, 2-[6-(p-Tolyl)pyrrolo[3,2-b]pyridin-1-yl]-1-pyrrolidin-1-yl-ethanone] as the molecule, how does the pIC50 read?
**A.** 7.20

**Q.** How did the pIC50 turn out when `CCc1cccc(-c2cnc3ccn(CC(=O)N4CCCC4)c3c2)c1` [Example 83, 2-[6-(3-Ethylphenyl)pyrrolo[3,2-b]pyridin-1-yl]-1-pyrrolidin-1-yl-ethanone] was run?
**A.** 6.60

**Q.** How did the pIC50 turn out when `O=C(Cn1ccc2ncc(-c3cccc(F)c3)cc21)N1CCCC1` [Example 84, 2-[6-(3-Fluorophenyl)pyrrolo[3,2-b]pyridin-1-yl]-1-pyrrolidin-1-yl-ethanone] was run?
**A.** 7.10

**Q.** How did the pIC50 turn out when `O=C(Cn1ccc2ncc(-c3ccccc3)cc21)N1CCOCC1` [Example 85, 1-Morpholino-2-(6-phenylpyrrolo[3,2-b]pyridin-1-yl)ethanone] was run?
**A.** 7.20

**Q.** With `O=C(Cn1ccc2ncc(-c3ccccc3F)cc21)N1CCOCC1` [Example 86, 2-[6-(2-Fluorophenyl)pyrrolo[3,2-b]pyridin-1-yl]-1-morpholino-ethanone] as the molecule, how does the pIC50 read?
**A.** 6.30

**Q.** `O=C(Cn1ccc2ncc(-c3cccc(F)c3)cc21)N1CCOCC1` [Example 87, 2-[6-(3-Fluorophenyl)pyrrolo[3,2-b]pyridin-1-yl]-1-morpholino-ethanone] was tested. Which pIC50 did it give?
**A.** 6.00

**Q.** `O=C(Cn1ccc2ncc(-c3ccc(F)cc3)cc21)N1CCOCC1` [Example 88, 2-[6-(4-Fluorophenyl)pyrrolo[3,2-b]pyridin-1-yl]-1-morpholino-ethanone] was tested. Which pIC50 did it give?
**A.** 6.60

**Q.** How did the pIC50 turn out when `Cc1cccc(-c2cnc3ccn(CC(=O)N4CCOCC4)c3c2)c1` [Example 89, 1-Morpholino-2-[6-(m-tolyl)pyrrolo[3,2-b]pyridin-1-yl]ethanone] was run?
**A.** 6.70

**Q.** With `Cc1ccc(-c2cnc3ccn(CC(=O)N4CCOCC4)c3c2)cc1` [Example 90, 1-Morpholino-2-[6-(p-tolyl)pyrrolo[3,2-b]pyridin-1-yl]ethanone] as the molecule, how does the pIC50 read?
**A.** 7.20

**Q.** How did the pIC50 turn out when `CCc1cccc(-c2cnc3ccn(CC(=O)N4CCOCC4)c3c2)c1` [Example 91, 2-[6-(3-ethylphenyl)pyrrolo[3,2-b]pyridin-1-yl]-1-morpholino-ethanone] was run?
**A.** 5.80

**Q.** `Cc1cc(-c2cnc3c(F)cn(CC(=O)N(C)C)c3c2)ccc1F` [Example 92, 2-[3-Fluoro-6-(4-fluoro-3-methyl-phenyl)pyrrolo[3,2-b]pyridin-1-yl]-N,N-dimethyl-acetamide] was tested. Which pIC50 did it give?
**A.** 6.90

**Q.** How did the pIC50 turn out when `CN(C)C(=O)Cn1cc(F)c2ncc(-c3ccc(F)c(F)c3)cc21` [Example 93, 2-[6-(3,4-Difluorophenyl)-3-fluoro-pyrrolo[3,2-b]pyridin-1-yl]-N,N-dimethyl-acetamide] was run?
**A.** 7.40

**Q.** How did the pIC50 turn out when `CN(C)C(=O)Cn1cc(F)c2ncc(-c3cc(F)c(F)c(F)c3)cc21` [Example 94, 2-[3-Fluoro-6-(3,4,5-trifluorophenyl)pyrrolo[3,2-b]pyridin-1-yl]-N,N-dimethyl-acetamide] was run?
**A.** 7.20

**Q.** With `CN(C)C(=O)Cn1cc(F)c2ncc(-c3cccc(C(F)F)c3)cc21` [Example 95, 2-[6-[3-(Difluoromethyl)phenyl]-3-fluoro-pyrrolo[3,2-b]pyridin-1-yl]-N,N-dimethyl-acetamide] as the molecule, how does the pIC50 read?
**A.** 7.40

**Q.** How did the pIC50 turn out when `Cc1csc(-c2cnc3c(F)cn(CC(=O)N(C)C)c3c2)c1` [Example 96, 2-[3-Fluoro-6-(4-methyl-2-thienyl)pyrrolo[3,2-b]pyridin-1-yl]-N,N-dimethyl-acetamide] was run?
**A.** 7.30

**Q.** With `CN(C)C(=O)Cn1cc(F)c2ncc(-c3ccc(Cl)s3)cc21` [Example 97, 2-[6-(5-Chloro-2-thienyl)-3-fluoro-pyrrolo[3,2-b]pyridin-1-yl]-N,N-dimethyl-acetamide] as the molecule, how does the pIC50 read?
**A.** 7.20

**Q.** With `CN(C)C(=O)Cn1cc(F)c2ncc(-c3ccc(F)cc3)cc21` [Example 98, 2-[3-Fluoro-6-(4-fluorophenyl)pyrrolo[3,2-b]pyridin-1-yl]-N,N-dimethyl-acetamide] as the molecule, how does the pIC50 read?
**A.** 7.30

**Q.** How did the pIC50 turn out when `O=C(Cn1ccc2ncc(-c3cncc(C(F)(F)F)c3)cc21)NC1CC1` [Example 99, N-Cyclopropyl-2-[6-[5-(trifluoromethyl)-3-pyridyl]pyrrolo[3,2-b]pyridin-1-yl]acetamide] was run?
**A.** 6.20

**Q.** With `O=C(Cn1ccc2ncc(-c3ccc(F)c(F)c3)cc21)NC1CC1` [Example 100, N-Cyclopropyl-2-[6-(3,4-difluorophenyl)pyrrolo[3,2-b]pyridin-1-yl]acetamide] as the molecule, how does the pIC50 read?
**A.** 6.00
